Species on record: Rattus norvegicus
Experiment: Open TG-GATES - Regimen: Daily Repeat
Type: toxicity, organism-based, Sprague-Dawley
Set-up: regimen Daily Repeat, gender Male, age 6 weeks
Conditions: in vivo, po, route gavage; for AST / BUN / CRE / Ca / Cl / DBIL / GLC / IP / K / LDH / Na / PL / RALB / TBIL / TC / TG / TP / gamma-GTP / A/G / ALP / ALT: tissue Plasma; for APTT / Bas / Eos / Fbg / Hb / Ht / Lym / MCH / MCHC / MCV / Mono / Neu / PT / Plat / RBC / Ret / WBC: tissue Blood; for KIDNEY_L / KIDNEY_R / KIDNEY_TOTAL: tissue Kidney; for LIVER: tissue Liver
[1] = 100 mg/kg, […], dose level Middle, time 7 day
[2] = 100 mg/kg, […], dose level Middle, time 14 day
[3] = 100 mg/kg, […], dose level Middle, time 28 day
[4] = 300 mg/kg, 72 h, dose level High, time 3 day
[5] = 300 mg/kg, […], dose level High, time 7 day
[6] = 300 mg/kg, […], dose level High, time 14 day

Molecule `CCc1cc(C(N)=S)ccn1` [ETHIONAMIDE] has an AST [1] of 66.8 IU/L, a BUN [1] of 15.8 mg/dL and a CRE [1] of 0.4 mg/dL. The Ca [1] was 10.4 mg/dL, the Cl [1] was 104 meq/L and the DBIL [1] was 0.088 mg/dL. The GLC [1] was 194.8 mg/dL, the IP [1] was 6.7 mg/dL and the K [1] was 4.6 meq/L. For the same molecule, the LDH [1] was 106.2 IU/L, the Na [1] was 139.8 meq/L and the PL [1] was 122.2 mg/dL. It also gave an RALB [1] of 3.7 g/dL, a TBIL [1] of 0.3 mg/dL and a TC [1] of 62 mg/dL. The TG [1] was 52.2 mg/dL, the TP [1] was 5.7 g/dL and the gamma-GTP [1] was 2.4 IU/L. For the same molecule, the A/G [2] was 2.6, the ALP [2] was 878.4 IU/L and the ALT [2] was 33.8 IU/L. It also gave an AST [2] of 58.8 IU/L, a BUN [2] of 16.8 mg/dL and a CRE [2] of 0.5 mg/dL. The Ca [2] was 10.5 mg/dL, the Cl [2] was 105 meq/L and the DBIL [2] was 0.034 mg/dL. The GLC [2] was 196.8 mg/dL, the IP [2] was 6.6 mg/dL and the K [2] was 4.4 meq/L. It also gave an LDH [2] of 82 IU/L, a Na [2] of 142.2 meq/L and a PL [2] of 125.2 mg/dL. It also gave an RALB [2] of 4.2 g/dL, a TBIL [2] of 0.3 mg/dL and a TC [2] of 60.6 mg/dL. It also gave a TG [2] of 65.8 mg/dL, a TP [2] of 5.8 g/dL and a gamma-GTP [2] of 1.4 IU/L. The A/G [3] was 2.1, the ALP [3] was 579.4 IU/L and the ALT [3] was 39.4 IU/L. It also gave an AST [3] of 56 IU/L, a BUN [3] of 19 mg/dL and a CRE [3] of 0.6 mg/dL. For the same molecule, the Ca [3] was 9.9 mg/dL, the Cl [3] was 104.4 meq/L and the DBIL [3] was 0.016 mg/dL. For the same molecule, the GLC [3] was 196 mg/dL, the IP [3] was 5.9 mg/dL and the K [3] was 4.6 meq/L. The LDH [3] was 86.2 IU/L, the Na [3] was 140 meq/L and the PL [3] was 121.6 mg/dL. The RALB [3] was 4.2 g/dL, the TBIL [3] was 0.3 mg/dL and the TC [3] was 62.4 mg/dL. It also gave a TG [3] of 60.4 mg/dL, a TP [3] of 6.2 g/dL and a gamma-GTP [3] of 1.8 IU/L. It also gave a TERMINAL_BW [4] of 204.1 g, an APTT [4] of 20 s and a Bas [4] of 0%. It also gave an Eos [4] of 1.4%, a Fbg [4] of 161.6 mg/dL and a Hb [4] of 17.1 g/dL. For the same molecule, the Ht [4] was 50.4%, the Lym [4] was 59.8% and the MCH [4] was 21.7 pg. It also gave an MCHC [4] of 34.1%, an MCV [4] of 63.5 fL and a Mono [4] of 6.4%. The Neu [4] was 32.6%, the PT [4] was 16 s and the Plat [4] was 119.1 x10_4/uL. The RBC [4] was 794.4 x10_4/ul, the Ret [4] was 13.3% and the WBC [4] was 115.4 x10_2/uL. For the same molecule, the KIDNEY_L [4] was 1 g, the KIDNEY_R [4] was 1 g and the KIDNEY_TOTAL [4] was 2 g. The LIVER [4] was 10.3 g, the A/G [4] was 2.3 and the ALP [4] was 1108.2 IU/L. The ALT [4] was 72.6 IU/L, the AST [4] was 190.6 IU/L and the BUN [4] was 12.2 mg/dL. It also gave a CRE [4] of 0.5 mg/dL, a Ca [4] of 9.7 mg/dL and a Cl [4] of 106.2 meq/L. For the same molecule, the DBIL [4] was 0.1 mg/dL, the GLC [4] was 172.6 mg/dL and the IP [4] was 7.6 mg/dL. The K [4] was 4.6 meq/L, the LDH [4] was 244 IU/L and the Na [4] was 139.4 meq/L. For the same molecule, the PL [4] was 82.8 mg/dL, the RALB [4] was 3.4 g/dL and the TBIL [4] was 0.3 mg/dL. For the same molecule, the TC [4] was 46.4 mg/dL, the TG [4] was 16 mg/dL and the TP [4] was 4.9 g/dL. For the same molecule, the gamma-GTP [4] was 1.4 IU/L, the TERMINAL_BW [5] was 227.8 g and the APTT [5] was 21.4 s. It also gave a Bas [5] of 0.3%, an Eos [5] of 3.7% and a Fbg [5] of 206 mg/dL. It also gave a Hb [5] of 16 g/dL, a Ht [5] of 46.9% and a Lym [5] of 44.7%. For the same molecule, the MCH [5] was 20.2 pg, the MCHC [5] was 34.1% and the MCV [5] was 59.2 fL. For the same molecule, the Mono [5] was 9%, the Neu [5] was 42% and the PT [5] was 14.7 s. It also gave a Plat [5] of 109.9 x10_4/uL, an RBC [5] of 792.3 x10_4/ul and a Ret [5] of 2.8%. It also gave a WBC [5] of 127.9 x10_2/uL, a Bas [6] of 0% and an MCHC [6] of 34.2%. The KIDNEY_L [5] was 1 g, the KIDNEY_R [5] was 1 g and the KIDNEY_TOTAL [5] was 2.1 g. The KIDNEY_L [6] was 1 g, the KIDNEY_TOTAL [6] was 2.1 g and the LIVER [5] was 11.3 g. The A/G [5] was 1.7, the ALP [5] was 739.3 IU/L and the ALT [5] was 66 IU/L. It also gave an AST [5] of 129 IU/L, a BUN [5] of 12.7 mg/dL and a CRE [5] of 0.4 mg/dL. For the same molecule, the Ca [5] was 10.1 mg/dL, the Cl [5] was 102.3 meq/L and the DBIL [5] was 0.0933 mg/dL. For the same molecule, the GLC [5] was 143 mg/dL, the IP [5] was 7.2 mg/dL and the K [5] was 3.9 meq/L. For the same molecule, the LDH [5] was 397.7 IU/L, the Na [5] was 136.7 meq/L and the PL [5] was 123.7 mg/dL. The RALB [5] was 3.6 g/dL, the TBIL [5] was 0.3 mg/dL and the TC [5] was 95.3 mg/dL. It also gave a TG [5] of 22.3 mg/dL, a TP [5] of 5.7 g/dL and a gamma-GTP [5] of 3.7 IU/L. The TBIL [6] was 0.3 mg/dL and the gamma-GTP [6] was 7 IU/L.

— ChEMBL document CHEMBL3885861, “Open TG-GATES”
